# Results reported in US20060069132A1, “Azolecarboxamide herbicides” (priority 2004, published 2006).
# Where two headings read alike, the source gives them in different places.
# Assays:
# lambsquarters = assay: Test B pre-/postemergence herbicide test; type: in vivo, Chenopodium album; conditions: Chenopodium album, 336 h; for pest or weed control at 125 g/ha: 125 g ai/ha
# Summary of the method: (§1)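 Flooded paddy rice and barnyardgrass were treated at the 2-leaf stage; upland plantings received compound either on sown seed or on 1- to 4-leaf seedlings. All were kept 13–15 days in a greenhouse and scored visually, 0–100, relative to untreated plants.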
# large crabgrass = assay: Test B pre-/postemergence herbicide test; type: in vivo, Digitaria sanguinalis; conditions: Digitaria sanguinalis; for pest or weed control at 125 g/ha: 125 g ai/ha; for pest or weed control at 500 g/ha: 500 g ai/ha
# Summary of the method: as §1
# velvetleaf = assay: Test B pre-/postemergence herbicide test; type: in vivo, Abutilon theophrasti; conditions: Abutilon theophrasti, 336 h; for pest or weed control at 125 g/ha: 125 g ai/ha; for pest or weed control at 500 g/ha: 500 g ai/ha
# Summary of the method: as §1
# blackgrass = assay: Test B postemergence herbicide test; type: in vivo, Alopecurus myosuroides; conditions: Alopecurus myosuroides, post-emergence, 336 h, postemergence, visual rating, scale 0 (no effect) to 100 (complete control), read-out: Blackgrass plant response rating
# Summary of the method: (§2)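 Each value is a visual 0–100 response rating taken against controls 13 to 15 days after treatment in the greenhouse. Plants received formulated chemical postemergence at the 1- to 4-leaf stage or, in flooded paddy, at the 2-leaf stage.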
# corn = assay: Test B pre-/postemergence herbicide test; type: in vivo, Zea mays; conditions: Zea mays; for plant injury at 125 g/ha: 125 g ai/ha
# Summary of the method: as §1
# morningglory = assay: Test B pre-/postemergence herbicide test; type: in vivo, Ipomoea coccinea; conditions: Ipomoea, 336 h; for pest or weed control at 125 g/ha: 125 g ai/ha; for pest or weed control at 500 g/ha: 500 g ai/ha
# Summary of the method: (§3)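 Evaluation is visual, comparing treated with control plants on a scale where 0 means no effect and 100 means full control. Treatments were preemergence, or postemergence on seedlings 2–18 cm tall, and held 13–15 days in the greenhouse.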
# barnyardgrass [1] = assay: Test B flooded paddy test; type: in vivo, Echinochloa crus-galli; conditions: Echinochloa crus-galli, 336 h, 1000 g ai/ha, scale 0 to 100 (0 no effect, 100 complete control), read-out: Barnyardgrass plant response rating
# Summary of the method: as §2
# barnyardgrass [2] = assay: Test B pre-/postemergence herbicide test; type: in vivo, Echinochloa crus-galli; conditions: Echinochloa crus-galli; for pest or weed control at 125 g/ha: 125 g ai/ha; for pest or weed control at 500 g/ha: 500 g ai/ha
# Summary of the method: as §3
# pigweed = assay: Test B pre-/postemergence herbicide test; type: in vivo, Amaranthus retroflexus; conditions: Amaranthus retroflexus, post-emergence, 336 h, postemergence, read-out: Pigweed plant response rating
# Summary of the method: as §1
# giant foxtail = assay: Test B pre-/postemergence herbicide test; type: in vivo, Setaria faberi; conditions: Setaria faberi, 336 h; for pest or weed control at 125 g/ha: 125 g ai/ha; for pest or weed control at 500 g/ha: 500 g ai/ha
# Summary of the method: as §1
# rice = assay: Test B flooded paddy test; type: in vivo, Oryza sativa; conditions: Oryza sativa, 336 h, 1000 g ai/ha, scale 0 to 100 (0 no effect, 100 complete control), read-out: Rice plant response rating
# Summary of the method: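 After treating 2-leaf paddy plants or 2–18 cm postemergence plants (1 to 4 leaves) with formulated chemical, researchers kept them in a greenhouse for 13–15 days. Effects were judged visually versus controls: 0 indicates none, 100 total control.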
# ducksalad = assay: Test B flooded paddy test; type: in vivo, Heteranthera limosa; conditions: Heteranthera limosa, 336 h, 1000 g ai/ha, scale 0 to 100 (0 no effect, 100 complete control), read-out: Ducksalad plant response rating
# Summary of the method: as §2
# cocklebur = assay: Test B pre-/postemergence herbicide test; type: in vivo, Xanthium strumarium; conditions: Xanthium strumarium; for pest or weed control at 125 g/ha: 125 g ai/ha; for pest or weed control at 500 g/ha: 500 g ai/ha
# Summary of the method: as §3
# wild oat = assay: Test B postemergence herbicide test; type: in vivo, Avena fatua; conditions: Avena fatua, post-emergence, 336 h, postemergence, read-out: Oat, Wild plant response rating
# Summary of the method: as §2
# [3] = tested on: small flower umbrella sedge; assay: Test B flooded paddy test; type: in vivo, Cyperus difformis; conditions: Cyperus difformis, 336 h, 1000 g ai/ha, scale 0 to 100 (0 no effect, 100 complete control), read-out: Sedge, Umbrella plant response rating
# Summary of the method: as §2
# [4] = post-emergence, postemergence, visual rating, scale 0 (no effect) to 100 (complete control), read-out: Barnyardgrass plant response rating
# [5] = 125 g ai/ha, visual rating, scale 0 (no effect) to 100 (complete control)
# [6] = 500 g ai/ha, scale 0 to 100, 0 is no effect, 100 is complete control
# [7] = post-emergence, postemergence, visual rating, scale 0 (no effect) to 100 (complete control), read-out: Cocklebur plant response rating
compound,measurement,setting,value
"CCOC(=O)c1ccc(F)c(NC(=O)C2CC(C(C)(C)C)=NN2CC)c1 (centres unmarked) [Compound 267, ethyl 3-[[[3-(1,1-dimethylethyl)-1-ethyl-4,5-dihydro-1H-pyrazol-5-yl]carbonyl]amino]-4-fluorobenzoate]",pest or weed control at 125 g/ha,"lambsquarters; post-emergence, postemergence, visual rating, scale 0 (no effect) to 100 (complete control), read-out: Lambsquarters plant response rating",30%
same,pest or weed control at 500 g/ha,"lambsquarters; post-emergence, postemergence, 500 g ai/ha, scale 0 to 100, 0 is no effect, 100 is complete control, read-out: Lambsquarters plant response rating",50%
same,pest or weed control at 125 g/ha,"lambsquarters; pre-emergence, 0 = no effect, 100 = complete control, read-out: Lambsquarters plant response rating (0 to 100 scale)",0%
same,pest or weed control at 125 g/ha,"large crabgrass; post-emergence, postemergence, visual rating, scale 0 (no effect) to 100 (complete control), read-out: Crabgrass, Large plant response rating",20%
same,pest or weed control at 500 g/ha,"large crabgrass; post-emergence, postemergence, scale 0 to 100, 0 is no effect, 100 is complete control, read-out: Crabgrass, Large plant response rating",40%
same,pest or weed control at 125 g/ha,"large crabgrass; pre-emergence, 0 = no effect, 100 = complete control, read-out: Crabgrass, Large plant response rating (0 to 100 scale)",40%
same,pest or weed control at 500 g/ha,"large crabgrass; pre-emergence, visual rating, 0 = no effect, 100 = complete control, read-out: Plant response rating, Crabgrass, Large",100%
same,pest or weed control at 125 g/ha,"velvetleaf; post-emergence, postemergence, visual rating, scale 0 (no effect) to 100 (complete control), read-out: Velvetleaf plant response rating",50%
same,pest or weed control at 500 g/ha,"velvetleaf; post-emergence, postemergence, scale 0 to 100, 0 is no effect, 100 is complete control, read-out: Velvetleaf plant response rating",70%
same,pest or weed control at 125 g/ha,"velvetleaf; pre-emergence, 0 = no effect, 100 = complete control, read-out: Velvetleaf plant response rating (0 to 100 scale)",20%
same,pest or weed control at 500 g/ha,"velvetleaf; pre-emergence, visual rating, 0 = no effect, 100 = complete control, read-out: Plant response rating, Velvetleaf",50%
same,pest or weed control at 125 g/ha,blackgrass; 125 g ai/ha,20%
same,pest or weed control at 500 g/ha,blackgrass; 500 g ai/ha,40%
same,plant injury at 125 g/ha,"corn; post-emergence, postemergence, visual rating, scale 0 (no effect) to 100 (complete control), read-out: Corn plant response rating",20%
same,plant injury at 500 g/ha,"corn; post-emergence, postemergence, 500 g ai/ha, scale 0 to 100, 0 is no effect, 100 is complete control, read-out: Corn plant response rating",40%
same,plant injury at 125 g/ha,"corn; pre-emergence, 0 = no effect, 100 = complete control, read-out: Corn plant response rating (0 to 100 scale)",0%
same,"Corn plant response rating (crop injury, 0 = no effect, 100 = complete kill) at 500 g/ha","corn; pre-emergence, 500 g ai/ha, visual rating, 0 = no effect, 100 = complete control",20%
same,pest or weed control at 125 g/ha,"morningglory; post-emergence, postemergence, visual rating, scale 0 (no effect) to 100 (complete control), read-out: Morningglory plant response rating",30%
same,pest or weed control at 500 g/ha,"morningglory; post-emergence, postemergence, scale 0 to 100, 0 is no effect, 100 is complete control, read-out: Morningglory plant response rating",40%
same,pest or weed control at 125 g/ha,"morningglory; pre-emergence, 0 = no effect, 100 = complete control, read-out: Morningglory plant response rating (0 to 100 scale)",20%
same,pest or weed control at 500 g/ha,"morningglory; pre-emergence, visual rating, 0 = no effect, 100 = complete control, read-out: Plant response rating, Morningglory",30%
same,pest or weed control at 1000 g/ha,barnyardgrass [1],60%
same,pest or weed control at 125 g/ha,barnyardgrass [2]; [4],40%
same,pest or weed control at 500 g/ha,barnyardgrass [2]; [4],90%
same,pest or weed control at 125 g/ha,"barnyardgrass [2]; pre-emergence, 0 = no effect, 100 = complete control, read-out: Barnyardgrass plant response rating (0 to 100 scale)",20%
same,pest or weed control at 500 g/ha,"barnyardgrass [2]; pre-emergence, visual rating, 0 = no effect, 100 = complete control, read-out: Plant response rating, Barnyardgrass",70%
same,pest or weed control at 125 g/ha,pigweed; [5],60%
same,pest or weed control at 500 g/ha,pigweed; [6],90%
same,pest or weed control at 125 g/ha,"giant foxtail; post-emergence, postemergence, visual rating, scale 0 (no effect) to 100 (complete control), read-out: Foxtail, Giant plant response rating",40%
same,pest or weed control at 500 g/ha,"giant foxtail; post-emergence, postemergence, scale 0 to 100, 0 is no effect, 100 is complete control, read-out: Foxtail, Giant plant response rating",50%
same,pest or weed control at 125 g/ha,"giant foxtail; pre-emergence, 0 = no effect, 100 = complete control, read-out: Foxtail, Giant plant response rating (0 to 100 scale)",30%
same,pest or weed control at 500 g/ha,"giant foxtail; pre-emergence, visual rating, 0 = no effect, 100 = complete control, read-out: Plant response rating, Foxtail, Giant",80%
same,plant injury at 1000 g/ha,rice,70%
same,pest or weed control at 1000 g/ha,ducksalad,0%
same,pest or weed control at 125 g/ha,cocklebur; [7],30%
same,pest or weed control at 500 g/ha,cocklebur; [7],90%
same,pest or weed control at 125 g/ha,"cocklebur; pre-emergence, 0 = no effect, 100 = complete control, read-out: Cocklebur plant response rating (0 to 100 scale)",0%
same,pest or weed control at 500 g/ha,"cocklebur; pre-emergence, visual rating, 0 = no effect, 100 = complete control, read-out: Plant response rating, Cocklebur",0%
same,pest or weed control at 125 g/ha,wild oat; [5],30%
same,pest or weed control at 500 g/ha,wild oat; [6],40%
same,pest or weed control at 1000 g/ha,[3],70%
